Legend:
human recombinant PDE5 = human recombinant PDE5 (Homo sapiens, UniProt O76074); assay: Inhibitory effect on cGMP-PDE (PDE5 IC50, one-step assay); format: biochemical; conditions: human recombinant PDE5, 0.15 μM 8-[H3]-cGMP, 30 minutes incubation
Experimental: The compounds of structural formula (I) were tested for an ability to inhibit PDE5. The ability of a compound to inhibit PDE5 activity is related to the IC50 value for the compound, i.e., the concentration of inhibitor required for 50% inhibition of enzyme activity. The IC50 value for compounds of structural formula (I) were determined using recombinant human PDE5.
cGMP-PDE activity of compounds of the present invention was measured using a one-step assay adapted from Wells et al., Biochim. Biophys. Acta, 384, 430 (1975). The reaction medium contained 50 mM Tris-HCl, pH 7.5, 5 mM magnesium acetate, 250 μg/ml 5′-Nucleotidase, 1 mM EGTA, and 0.15 μM 8-[H^3]-cGMP. Unless otherwise indicated, the enzyme used was a human recombinant PDE5 (ICOS Corp., Bothell, Wash.).
Compounds of the invention were dissolved in DMSO finally present at 2% in the assay.

Row | SMILES | IC50 (human recombinant PDE5) [nM] | melting point [°C]
1 | S=C(NCc1ccc(Cl)cc1Cl)N1CCc2c([nH]c3ccccc23)[C@H]1c1ccc2c(c1)OCO2 [Example 25, (1R)-benzo[1,3]dioxol-5-yl-1,3,4,9-tetrahydro-β-carboline-2-carbothioic acid 2,4-dichlorobenzylamide] | 126 | 124 to 127
2 | O=C(C=C1CCCCC1)N1CCc2c([nH]c3ccccc23)[C@H]1c1ccc2c(c1)OCO2 [Example 16] | 209 | 116 to 118
3 | O=C(NC(=S)N1CCc2c([nH]c3ccccc23)C1c1ccc2c(c1)OCO2)c1ccccc1 (centres unmarked) [Example 38] | 379 | 207 to 208
4 | FC(F)(F)c1ccccc1NC(=S)N1CCc2c([nH]c3ccccc23)[C@H]1c1ccc2c(c1)OCO2 [Example 31, (1R)-benzo[1,3]dioxol-5-yl-1,3,4,9-tetrahydro-β-carboline-2-carbothioic acid (2-trifluoromethylphenyl)amide] | 518 | –
5 | O=C(NCc1ccccc1)N1CCc2c([nH]c3ccccc23)C1c1ccccc1 (centres unmarked) [Example 4] | 800 | –
6 | S=C(NCc1ccccc1)N1CCc2c([nH]c3ccccc23)[C@H]1c1ccc2c(c1)OCO2 [Example 2b, (1R)-1-benzo[1,3]dioxol-5-yl-1,3,4,9-tetrahydro-β-carboline-2-carbothioic acid benzylamide] | 40 | 205 to 207
7 | COC(=O)CCCC(=O)N1CCc2c([nH]c3ccccc23)C1c1ccccc1 (centres unmarked) [Example 20] | 1 | –
8 | O=C(OCc1ccccc1)N1CCc2c([nH]c3ccccc23)[C@H]1c1ccc2c(c1)OCO2 [Example 15b, (1R)-1-benzo[1,3]dioxol-5-yl-1,3,4,9-tetrahydro-β-carboline-2-carboxylic acid benzyl ester] | 9 | –
9 | Cc1ccc(CNC(=S)N2CCc3c([nH]c4ccccc34)[C@H]2c2ccc3c(c2)OCO3)cc1C [Example 37, (1R)-benzo[1,3]dioxol-5-yl-1,3,4,9-tetrahydro-β-carboline-2-carbothioic acid 3,4-dimethylbenzylamide] | 30 | 138 to 142
10 | S=C(NCc1ccccc1Cl)N1CCc2c([nH]c3ccccc23)[C@H]1c1ccc2c(c1)OCO2 [Example 24, (1R)-benzo[1,3]dioxol-5-yl-1,3,4,9-tetrahydro-β-carboline-2-carbothioic acid 2-chlorobenzylamide] | 177 | 123 to 128
11 | O=C(NC(=O)N1CCc2c([nH]c3ccccc23)[C@H]1c1ccc2c(c1)OCO2)c1ccccc1 [Example 12, N-((1R)-1-benzo[1,3]dioxol-5-yl-1,3,4,9-tetrahydro-β-carboline-2-carbonyl)benzamide] | 49 | –
12 | O=C(Nc1ccccc1)N1CCc2c([nH]c3ccccc23)C1c1ccccc1 (centres unmarked) [Example 5] | 400 | –
13 | C[C@H](NC(=S)N1CCc2c([nH]c3ccccc23)[C@H]1c1ccc2c(c1)OCO2)c1ccccc1 [Example 27] | 196 | 117 to 121
14 | O=C(O)c1cccc(CNC(=S)N2CCc3c([nH]c4ccccc34)[C@H]2c2ccc3c(c2)OCO3)c1 [Example 29, (1R)-3-{[(1-benzo[1,3]dioxol-5-yl-1,3,4,9-tetrahydro-β-carboline-2-carbthiolyl)amino]methyl}benzoic acid] | 469 | 218 to 220
15 | S=C(NCc1ccc(Cl)cc1)N1CCc2c([nH]c3ccccc23)[C@H]1c1ccc2c(c1)OCO2 [Example 32, (1R)-benzo[1,3]dioxol-5-yl-1,3,4,9-tetrahydro-β-carboline-2-carbothioic acid 4-chlorobenzylamide] | 51 | –
16 | S=C(NCc1ccc2c(c1)OCO2)N1CCc2c([nH]c3ccccc23)[C@H]1c1ccc2c(c1)OCO2 [Example 40, (1R)-1-benzo-[1,3]dioxol-5-yl-1,3,4,9-tetrahydro-β-carboline-2-carbothioic acid (benzo[1,3]dioxol-5-yl-methyl)amide] | 56 | 97 to 100
17 | O=S(=O)(/C=C/c1ccccc1)N1CCc2c([nH]c3ccccc23)[C@H]1c1ccc2c(c1)OCO2 [Example 41b, (1R)-1-benzo[1,3]dioxol-5-yl-2-(2-phenylethenesulfonyl)-2,3,4,9-tetrahydro-1H-β-carboline] | 413 | 193 to 194
18 | COc1ccc(C2c3[nH]c4ccccc4c3CCN2C(=O)CCCC(=O)O)cc1Cl (centres unmarked) [Example 21] | 180 | –

Row | SMILES | IC50 (human recombinant PDE5) [nM] | melting point [°C]
19 | C[C@H](NC(=O)N1CCc2c([nH]c3ccccc23)[C@H]1c1ccc2c(c1)OCO2)c1ccccc1 [Example 10, (1R)-benzo[1,3]dioxol-5-yl-1,3,4,9-tetrahydro-β-carboline-2-carboxylic acid (1S)-(phenylethyl)amide] | 13 | 120 to 121
20 | Fc1cccc(CNC(=S)N2CCc3c([nH]c4ccccc34)[C@H]2c2ccc3c(c2)OCO3)c1 [Example 33, (1R)-benzo[1,3]dioxol-5-yl-1,3,4,9-tetrahydro-β-carboline-2-carbothioic acid 3-fluorobenzylamide] | 75 | 179 to 181
21 | O=C(NC1CCCCC1)N1CCc2c([nH]c3ccccc23)C1c1ccc2c(c1)OCO2 (centres unmarked) [Example 7] | 850 | –
22 | S=C(NCc1ccccc1)N1CCc2c([nH]c3ccccc23)C1c1ccc2c(c1)OCO2 (stereo not drawn) [Example 2a, 1-benzo[1,3]dioxol-5-yl-1,3,4,9-tetrahydro-β-caboline-2-carbothioic acid benzylamide] | 51 | 197
23 | O=C(Nc1ccccc1)C(=O)N1CCc2c([nH]c3ccccc23)[C@H]1c1ccc2c(c1)OCO2 [Example 1, (1R)-2-(1-benzo[1,3]dioxol-5-yl-1,3,4,9-tetrahydro-β-carbolin-2-yl)-2-oxo-N-phenylacetamide] | 167 | –
24 | FC(F)(F)c1cc(NC(=S)N2CCc3c([nH]c4ccccc34)[C@H]2c2ccc3c(c2)OCO3)ccc1Cl [Example 30, (1R)-benzo[1,3]dioxol-5-yl-1,3,4,9-tetrahydro-β-carboline-2-carbothioic acid (4-chloro-3-trifuloromethylphenyl)amide] | 83 | –
25 | O=C(Nc1cccc2ccccc12)N1CCc2c([nH]c3ccccc23)C1c1ccccc1 (centres unmarked) [Example 6] | 400 | –
26 | COC(=O)N1CCc2c([nH]c3ccccc23)C1c1ccccc1 (centres unmarked) [Example 19] | 1 | –
27 | S=C(NCc1cccc(Cl)c1)N1CCc2c([nH]c3ccccc23)[C@H]1c1ccc2c(c1)OCO2 [Example 36, (1R)-benzo[1,3]dioxol-5-yl-1,3,4,9-tetrahydro-β-carboline-2-carbothioic acid 3-chlorobenzylamide] | 494 | 189 to 191
28 | S=C(NCc1ccc(Cl)c(Cl)c1)N1CCc2c([nH]c3ccccc23)[C@H]1c1ccc2c(c1)OCO2 [Example 34, (1R)-benzo[1,3]dioxol-5-yl-1,3,4,9-tetrahydro-β-carboline-2-carbothioic acid 3,4-dichlorobenzylamide] | 512 | –
29 | Fc1ccc(CNC(=S)N2CCc3c([nH]c4ccccc34)[C@H]2c2ccc3c(c2)OCO3)cc1 [Example 35, (1R)-benzo[1,3]dioxol-5-yl-1,3,4,9-tetrahydro-β-carboline-2-carbothioic acid 4-fluorobenzylamide] | 122 | 137 to 139
30 | O=C(OCc1ccccc1)N1CCc2c([nH]c3ccccc23)C1c1ccc2c(c1)OCO2 (stereo not drawn) [Example 15a, 1-benzo[1,3]dioxol-5-yl-1,3,4,9-tetrahydro-β-carboline-2-carboxylic acid benzyl ester] | 17 | –
31 | O=S(=O)(/C=C/c1ccccc1)N1CCc2c([nH]c3ccccc23)C1c1ccc2c(c1)OCO2 (stereo not drawn) [Example 41a, 1-benzo[1,3]dioxol-5-yl-2-(2-phenylethenesulfonyl)-2,3,4,9-tetrahydro-1H-β-carboline] | 675 | 191 to 192
32 | S=C(NCc1cccc2ccccc12)N1CCc2c([nH]c3ccccc23)[C@H]1c1ccc2c(c1)OCO2 [Example 39, (1R)-1-benzo[1,3]dioxol-5-yl-1,3,4,9-tetrahydro-β-carboline-2-carbothioic acid (naphthalen-1-yl-methyl)amide] | 119 | 111 to 113
33 | Fc1ccccc1CNC(=S)N1CCc2c([nH]c3ccccc23)[C@H]1c1ccc2c(c1)OCO2 [Example 26] | 40 | –
34 | O=C(O)c1ccc(CNC(=S)N2CCc3c([nH]c4ccccc34)[C@H]2c2ccc3c(c2)OCO3)cc1 [Example 28, (1R)-4-{[(1-benzo[1,3]dioxol-5-yl-1,3,4,9-tetrahydro-β-carboline-2-carbthiolyl)-amino]methyl}benzoic acid] | 36 | –
35 | O=C(CC(=O)N1CCc2c([nH]c3ccccc23)[C@H]1c1ccc2c(c1)OCO2)c1ccccc1 [Example 17, (1R)-1-(1-benzo[1,3]dioxol-5-yl-1,3,4,9-tetrahydro-β-carbolin-2-yl)-3-phenylpropane-1,3-dione] | 29 | –
36 | O=C(O)CCCC(=O)N1CCc2c([nH]c3ccccc23)C1c1ccc2c(c1)OCO2 (centres unmarked) [Example 22] | 150 | –
